Source: ChEMBL document CHEMBL1671754, “Reduced expression of the vca0421 gene of Vibrio cholerae O1 results in innate resistance to ciprofloxacin” (2010)
Values after ≈ are worked out from the molar mass of the structure shown.

Columns and labels:
Format in all cases: functional
[1] = Antibacterial activity against Vibrio cholerae O1 569B harboring gyrA and parC genes by 2-fold agar dilution method
Escherichia coli [2] = assay: Antibacterial activity against Escherichia coli JM109 harboring plasmid ptac85
[3] = Antibacterial activity against Vibrio cholerae O1 CIP0.25-1 harboring Ser to Ile mutation at 83 position in gyrA and parC genes by 2-fold agar dilution method
[4] = Antibacterial activity against Vibrio cholerae O1 mTn-321 harboring Ser to Ile mutation at 83 position in gyrA and parC genes by 2-fold agar dilution method
Escherichia coli [5] = assay: Antibacterial activity against Escherichia coli JM109 harboring plasmid ptac85-vca0421

Row | Structure (SMILES) | MIC [1] | MIC (Escherichia coli [2]) | MIC [3] | MIC [4] | MIC (Escherichia coli [5])
1 | C[C@@H]1CN(c2c(F)c(N)c3c(=O)c(C(=O)O)cn(C4CC4)c3c2F)C[C@H](C)N1 [SPARFLOXACIN] | 0.004 µg/mL (≈ 0.0102 µM) | 0.25 µg/mL (≈ 0.637 µM) | 0.125 µg/mL (≈ 0.319 µM) | 0.0625 µg/mL (≈ 0.159 µM) | 0.125 µg/mL (≈ 0.319 µM)
2 | O=C(O)c1cn(C2CC2)c2cc(N3CCNCC3)c(F)cc2c1=O [CIPROFLOXACIN] | 0.004 µg/mL (≈ 0.0121 µM) | – | – | – | –
3 | CCn1cc(C(=O)O)c(=O)c2cc(F)c(N3CCNCC3)cc21 [NORFLOXACIN] | 0.0078 µg/mL (≈ 0.0244 µM) | 1 µg/mL (≈ 3.13 µM) | 2 µg/mL (≈ 6.26 µM) | 0.125 µg/mL (≈ 0.391 µM) | 1 µg/mL (≈ 3.13 µM)
4 | CCn1cc(C(=O)O)c(=O)c2cc(F)c(N3CCNCC3)nc21 [ENOXACIN] | 0.0313 µg/mL (≈ 0.0977 µM) | 4 µg/mL (≈ 12.5 µM) | 2 µg/mL (≈ 6.24 µM) | 0.25 µg/mL (≈ 0.78 µM) | 2 µg/mL (≈ 6.24 µM)
5 | CN(C)[C@@H]1C(O)=C(C(N)=O)C(=O)[C@@]2(O)C(O)=C3C(=O)c4c(O)cccc4[C@@](C)(O)[C@H]3C[C@@H]12 [TETRACYCLINE] | 0.5 µg/mL (≈ 1.13 µM) | 16 µg/mL (≈ 36 µM) | 4 µg/mL (≈ 9 µM) | – | 8 µg/mL (≈ 18 µM)
